# Laboratory results published in PMC10492809, “A Bischler-Napieralski and homo-Mannich sequence enables diversified syntheses of sarpagine alkaloids and analogues” (Nature Communications, 2023).
# Values joined by “and” are separate entries in the source; they are usually repeats but may differ in a detail not shown here. Equal entries are not always repeated. Where two headings read alike, the source gives them in different places.
# Columns and labels:
# Type in all cases: cell-based
# A375 = experiment: MTT cell viability assay, A375
# Experimental: All cell lines were cultured at 37 °C with 5% CO2 in a humidified incubator. HeLa cells were grown in MEM (Gibco) supplemented with 10% fetal bovine serum (FBS, Hyclone) and 1% penicillin/streptomycin (Gibco). MIA PaCa-2, MDA-MB-231, A549, MCF-7, A375 and BEAS-2B cells were grown in DMEM (Gibco) supplemented with 10% FBS and 1% penicillin/streptomycin. CT26, and HCT116 cells were grown in RPMI-1640 supplemented with 10% FBS and 1% penicillin/streptomycin. All cell lines were purchased from the National Collection of Authenticated Cell Cultures (China).
# The antiproliferative activities of the prepared compounds against tested cell lines were evaluated using a standard (MTT)-based colorimetric assay. Cells were plated at a density of 3000 cells/well in 96-well plates and allowed to adhere overnight. Then cells were treated with varying concentrations of synthesized compounds for 72 h. At the end of treatment, 20 μL of thiazolyl blue tetrazolium bromide (MTT) solution (5 mg/mL) was added to each well. Cells were incubated for an additional 4 h at 37 °C and then the medium was removed and replaced with 200 μL of DMSO. The absorbance (OD490) was read on a microplate reader (SpectraMax i3x, Molecular Devices, US). In all experiments, three replicate wells were used for each drug concentration. Each assay was performed at least three times. The IC50 values were calculated by GraphPad Prism 9, which were the mean values derived from three independent experiments.
# MDA-MB-231 cells = experiment: Transmission electron microscopy of cell morphology; settings: 15ai 4 μM, 24 h
# Experimental: Cells were plated at a density of 6 × 10^5 cells/dish in 10 cm culture dishes and allowed to adhere overnight. Then cells were treated with DMSO or compound 15ai for 24 h. Cells were fixed with 2.5% glutaraldehyde in […] phosphate buffer, followed by 1% OsO4 for 2 h. After dehydration, cells were embedded in epoxy resin. The ultrathin sections were made by an ultramicrotome and then stained with lead citrate and uranyl acetate. Images were acquired using the transmission electron microscope (Hitachi H-7650 100kv, Hitachi, Japan). Each experiment was repeated three times independently with similar results.
# SLC7A11 = experiment: Western blotting, SLC7A11 protein expression; settings: 15ai 0, 2, 4 and 8 μM, 24 h
# Experimental: (§1) Cells on 6-well plates were rinsed twice with cold PBS and lysed in RIPA lysis buffer (50 mM Tris (pH 7.4), 150 mM NaCl, 1% Triton X-100, 1% deoxycholicphenyl methylsulfonyl fluoride, 5.0 mM sodium pyrophosphate, […] leupeptin, 0.1 mM phenylmethylsulfonyl fluoride, and1 mM DTT) containing a protease inhibitor (PMSF) mixture at 1:100 dilution on ice for 30 min. The insoluble components of cell lysates were removed by centrifugation (4 °C, 12000 × g, 10 min), and protein concentrations were measured using a Pierce BCA protein assay kit. Proteins were separated by sodium dodecyl sulfate-polyacrylamide gel electrophoresis (SDS-PAGE) and transferred onto polyvinylidene difluoride (PVDF) membranes. Membranes were blocked using 5% skim milk in TBST and then incubated with diluted indicated primary antibodies: anti-GPX4 (1:1000 dilution, Proteintech, Cat No: 30388-1-AP), anti-SLC7A11 (1:1000 dilution, ABclonal, Cat No: A13685), anti-GAPDH (1:1000 dilution, Wanlei, Cat No: WL01114) at 4 °C with gentle shaking overnight. After washing five times (5 min each) with TBST, membranes were incubated with the HRP conjugated goat anti rabbit IgG (H + L) (1:5000 dilution, Wanlei, Cat No: WLA023) for 1 h at rt. Immunoreactive bands were visualized using an ECL detection kit (Wanlei, Cat No: WLA006) following the manufacturer’s instruction on the ChemiDoc system (BioRad, Shanghai, China).
# GPX4 = experiment: Western blotting, GPX4 protein expression; settings: 15ai 0, 2, 4 and 8 μM, 24 h
# Experimental: as §1
compound,measurement,setting,value
C=C=C1CN2[C@H]3C[C@H]1[C@H](C=O)[C@@H]2Cc1c3n(S(=O)(=O)c2ccc(C)cc2)c2ccc(Cl)cc12 [Compound 15ai],IC50,"A375; Homo sapiens, A-375, 72 h, MTT, 72 h, mean of at least three independent experiments, read-out: IC50 A375",2640 nM
same,IC50,"A375; Homo sapiens, A-375, source data sheet, single values of three experiments, read-out: MTT IC50 A375",2780 nM
same,IC50,"A375; source data sheet, single values of three experiments, read-out: MTT IC50 A375",1960 nM and 3180 nM
same,cell morphology by TEM,MDA-MB-231 cells,mitochondrial swelling occurred
same,SLC7A11 level,SLC7A11,dose-dependently decreased
same,protein level of GPX4,GPX4,did not affect the protein level of GPX4
